According to patent US20230279016A1, “Tetrahydropyrazolopyrimidines and Related Analogs for Inhibiting YAP/TAZ-TEAD” (THE KATHOLIEKE UNIVERSITEIT LEUVEN, priority 2021, published 2023):

What follows are compounds tested on YAP/TAZ-TEAD transcription (assay: Reporter gene assay for measuring the inhibition of YAP/TAZ-TEAD transcription (TEAD-responsive element luciferase reporter in Hek293T cells)). Details: Hek293T cells transiently transfected with TEAD-responsive element luciferase reporter, 24 hours incubation.
Assay type: cell-based
Description: Hek293T cells are cultured in DMEM supplemented with 10% fetal bovine serum, Sodium pyruvate, Sodium bicarbonate, L-glutamine. The cells are harvested and transiently transfected with TEAD-responsive element luciferase reporter. Transfected cells are plated in 384-wells plate containing pre-diluted compounds. After 24 hours incubation at 37° C./5%CO2, assay plates were cooled down to RT and levelled to an equal volume per well, prior to the addition of 25 uL luciferase substrate SteadyLite (Perkin Elmer)/well. The plate was shaken for 10 min at 600 rpm, centrifuged for 1min at 500 rpm and measured with an Envision reader (PerkinElmer). The amount of relative light units produced by the TEAD reporter is used to calculated percent of inhibition.
The percent of reporter inhibition was calculated in the presence of a positive control inhibitor (100% inhibition) versus a condition with the presence of the vehicle basal activity of the reporter (0% inhibition). The ability of a test compound to inhibit this activity was determined as:
Percentage inhibition=[1-((RLU determined in the presence of vehicle—RLU determined for sample with test compound present) divided by (RLU determined in the presence of vehicle — RLU determined for sample with positive control inhibitor))] * 100
The activities of the example compounds tested are depicted in the table below. The activity ranges A, B and C refer to EC50 values in the reporter gene assay as described as follows: “A”: EC50 <1 μM; “B” : 1 μM≤EC50≤20 μM and “C” : EC50>20 μM, NT=not tested.

Row | EC50 [nM] | SMILES
1 | < 1000 | C=CC(=O)NC1CN(c2ccc(C(F)(F)F)cc2)c2ccnn2C1 (single isomer, unassigned) [Cpd. No. 061-En1, (R)- or (S)-N-(4-(4-(trifluoromethyl)phenyl)-4,5,6,7-tetrahydropyrazolo[1,5-a]pyrimidin-6-yl)acrylamide]
2 | < 1000 | C=CC(=O)NC1CN(c2ccc(C(F)(F)F)cc2)c2ccnn2C1 (single isomer, unassigned) [Cpd. No. 061-En2, (R)- or (S)-N-(4-(4-(trifluoromethyl)phenyl)-4,5,6,7-tetrahydropyrazolo[1,5-a]pyrimidin-6-yl)acrylamide]
3 | < 1000 | C=CC(=O)NC1CN(c2ccc(C(F)(F)F)cc2F)c2ccnn2C1 (single isomer, unassigned) [Cpd. No. 065-En2, (R)- or (S)-N-(4-(2-fluoro-4-(trifluoromethyl)phenyl)-4,5,6,7-tetrahydropyrazolo[1,5-a]pyrimidin-6-yl)acrylamide]
4 | < 1000 | C=CC(=O)N1CCC2(C1)CN(c1ccc(C(F)(F)F)cc1)c1ccnn1C2 (single isomer, unassigned) [Cpd. No. 088-En1, (R)- or (S)-1-(4-(4-(trifluoromethyl)phenyl)-4,5-dihydro-7H-spiro[pyrazolo[1,5-a]pyrimidine-6,3′-pyrrolidin]-1′-yl)prop-2-en-1-one]
5 | < 1000 | C=CC(=O)N1CCC2(C1)CN(c1ccc(C(F)(F)F)cc1)c1ccnn1C2 (single isomer, unassigned) [Cpd. No. 088-En2, (R)- or (S)-1-(4-(4-(trifluoromethyl)phenyl)-4,5-dihydro-7H-spiro[pyrazolo[1,5-a]pyrimidine-6,3′-pyrrolidin]-1′-yl)prop-2-en-1-one]
6 | > 20000 | CS(=O)(=O)N1CCC2(CN(c3ccc(C(F)(F)F)cc3)c3ccnn3C2)C1=O (single isomer, unassigned) [Cpd. No. 089-En2, (R)- or (S)-1′-(methylsulfonyl)-4-(4-(trifluoromethyl)phenyl)-4,5-dihydro-7H-spiro[pyrazolo[1,5-a]pyrimidine-6,3′-pyrrolidin]-2′-one]
7 | > 20000 | CN1CCC2(CN(c3ccc(C(F)(F)F)cc3)c3ccnn3C2)C1=O (single isomer, unassigned) [Cpd. No. 090-En2, (R)- or (S)-1′-methyl-4-(4-(trifluoromethyl)phenyl)-4,5-dihydro-7H-spiro[pyrazolo[1,5-a]pyrimidine-6,3′-pyrrolidin]-2′-one]
8 | < 1000 | C=CC(=O)NCC1CN(c2ccc(C(F)(F)F)cc2)c2cnc(C(F)(F)F)n2C1 (single isomer, unassigned) [Cpd. No. 094-En1, (R)- or (S)-N-((6-(trifluoromethyl)-1-(4-(trifluoromethyl)phenyl)-1,2,3,4-tetrahydroimidazo[1,5-a]pyrimidin-3-yl)methyl)acrylamide]
9 | < 1000 | C=CC(=O)NCC1CN(c2ccc(C(F)(F)F)cc2)c2cnc(C(F)(F)F)n2C1 (single isomer, unassigned) [Cpd. No. 094-En2, (R)- or (S)-N-((6-(trifluoromethyl)-1-(4-(trifluoromethyl)phenyl)-1,2,3,4-tetrahydroimidazo[1,5-a]pyrimidin-3-yl)methyl)acrylamide]
10 | < 1000 | C=CC(=O)NCC1CN(c2ccc(C(F)F)nc2)c2ccnn2C1 (stereo not drawn) [Cpd. No. 010, N-((4-(6-(difluoromethyl)pyridin-3-yl)-4,5,6,7-tetrahydropyrazolo[1,5-a]pyrimidin-6-yl)methyl)acrylamide]
11 | 1000 to 20000 | C=CC(=O)NCC1CN(c2ccc(-c3ccccc3)cc2)c2ccnn2C1 (stereo not drawn) [Cpd. No. 017, N-((4-([1,1′-biphenyl]-4-yl)-4,5,6,7-tetrahydropyrazolo[1,5-a]pyrimidin-6-yl)methyl)acrylamide]
12 | < 1000 | CCC(=O)NCC1CN(c2ccc(C(F)(F)F)cc2)c2ccnn2C1 (stereo not drawn) [Cpd. No. 028, N-((4-(4-(trifluoromethyl)phenyl)-4,5,6,7-tetrahydropyrazolo[1,5-a]pyrimidin-6-yl)methyl)propionamide]

Same assay, conditions: Homo sapiens, HEK-293T, 24 h, Hek293T cells transiently transfected with TEAD-responsive element luciferase reporter, 24 hours incubation

Row | EC50 [nM] | SMILES
13 | < 1000 | C=CC(=O)NCC1CN(Cc2ccccc2)c2ccnn2C1 (single isomer, unassigned) [Cpd. No. 049-En2, (R)- or (S)-N-((4-benzyl-4,5,6,7-tetrahydropyrazolo[1,5-a]pyrimidin-6-yl)methyl)acrylamide]
14 | > 20000 | CS(=O)(=O)N1CCC2(CN(c3ccc(C(F)(F)F)cc3)c3ccnn3C2)C1=O (single isomer, unassigned) [Cpd. No. 089-En1, (R)- or (S)-1′-(methylsulfonyl)-4-(4-(trifluoromethyl)phenyl)-4,5-dihydro-7H-spiro[pyrazolo[1,5-a]pyrimidine-6,3′-pyrrolidin]-2′-one]
15 | > 20000 | CN1CCC2(CN(c3ccc(C(F)(F)F)cc3)c3ccnn3C2)C1=O (single isomer, unassigned) [Cpd. No. 090-En1, (R)- or (S)-1′-methyl-4-(4-(trifluoromethyl)phenyl)-4,5-dihydro-7H-spiro[pyrazolo[1,5-a]pyrimidine-6,3′-pyrrolidin]-2′-one]
16 | < 1000 | C=CC(=O)NCC1CN(c2cccc(C(F)(F)F)c2)c2ccnn2C1 (stereo not drawn) [Cpd. No. 003, N-((4-(3-(trifluoromethyl)phenyl)-4,5,6,7-tetrahydropyrazolo[1,5-a]pyrimidin-6-yl)methyl)acrylamide]
17 | < 1000 | C=CC(=O)NCC1CN(c2cccc(F)c2)c2ccnn2C1 (stereo not drawn) [Cpd. No. 004, N-((4-(3-fluorophenyl)-4,5,6,7-tetrahydropyrazolo[1,5-a]pyrimidin-6-yl)methyl)acrylamide]
18 | < 1000 | C=CC(=O)NCC1CN(c2ccc(F)cc2)c2ccnn2C1 (stereo not drawn) [Cpd. No. 006, N-((4-(4-fluorophenyl)-4,5,6,7-tetrahydropyrazolo[1,5-a]pyrimidin-6-yl)methyl)acrylamide]
19 | < 1000 | C=CC(=O)NCC1CN(c2ccc(C(F)F)cc2)c2ccnn2C1 (stereo not drawn) [Cpd. No. 009, N-((4-(4-(difluoromethyl)phenyl)-4,5,6,7-tetrahydropyrazolo[1,5-a]pyrimidin-6-yl)methyl)acrylamide]
20 | < 1000 | C=CC(=O)NCC1CN(c2ccc(OC(F)(F)F)c(F)c2)c2ccnn2C1 (stereo not drawn) [Cpd. No. 018, N-((4-(3-fluoro-4-(trifluoromethoxy)phenyl)-4,5,6,7-tetrahydropyrazolo[1,5-a]pyrimidin-6-yl)methyl)acrylamide]
21 | < 1000 | C=CC(=O)NCC1CN(c2ccc(SC(F)(F)F)cc2)c2ccnn2C1 (stereo not drawn) [Cpd. No. 020, N-((4-(4-((trifluoromethyl)thio)phenyl)-4,5,6,7-tetrahydropyrazolo[1,5-a]pyrimidin-6-yl)methyl)acrylamide]
22 | > 20000 | C=CC(=O)NCC1CN(c2cnn(C(F)F)c2)c2ccnn2C1 (stereo not drawn) [Cpd. No. 025, N-((4-(1-(difluoromethyl)-1H-pyrazol-4-yl)-4,5,6,7-tetrahydropyrazolo[1,5-a]pyrimidin-6-yl)methyl)acrylamide]
23 | < 1000 | C=CC(=O)NCC1CN(c2ccc(OC(F)(F)F)cc2)c2cc(C)nn2C1 (stereo not drawn) [Cpd. No. 030, N-((2-methyl-4-(4-(trifluoromethoxy)phenyl)-4,5,6,7-tetrahydropyrazolo[1,5-a]pyrimidin-6-yl)methyl)acrylamide]
24 | < 1000 | C=CC(=O)NCC1CN(c2ccc(C(F)(F)F)cc2)c2cc(C#N)nn2C1 (stereo not drawn) [Cpd. No. 033, N-((2-cyano-4-(4-(trifluoromethyl)phenyl)-4,5,6,7-tetrahydropyrazolo[1,5-a]pyrimidin-6-yl)methyl)acrylamide]
25 | < 1000 | C#Cc1ccc(N2CC(CNC(=O)C=C)Cn3nccc32)cc1 (stereo not drawn) [Cpd. No. 036, N-((4-(4-ethynylphenyl)-4,5,6,7-tetrahydropyrazolo[1,5-a]pyrimidin-6-yl)methyl)acrylamide]
26 | < 1000 | C=CC(=O)NCC1CN(C2CCCCC2)c2ccnn2C1 (stereo not drawn) [Cpd. No. 037, N-((4-cyclohexyl-4,5,6,7-tetrahydropyrazolo[1,5-a]pyrimidin-6-yl)methyl)acrylamide]
27 | 1000 to 20000 | CN(C)C/C=C/C(=O)NCC1CN(c2ccc(C(F)(F)F)cc2)c2ccnn2C1 (stereo not drawn) [Cpd. No. 041, (E)-4-(dimethylamino)-N-((4-(4-(trifluoromethyl)phenyl)-4,5,6,7-tetrahydropyrazolo[1,5-a]pyrimidin-6-yl)methyl)but-2-enamide]
28 | > 20000 | N#CCC(=O)NCC1CN(c2ccc(C(F)(F)F)cc2)c2ccnn2C1 (stereo not drawn) [Cpd. No. 042, 2-cyano-N-((4-(4-(trifluoromethyl)phenyl)-4,5,6,7-tetrahydropyrazolo[1,5-a]pyrimidin-6-yl)methyl)acetamide]
29 | > 20000 | CC(=O)N(CC#N)CC1CN(c2ccc(C(F)(F)F)cc2)c2ccnn2C1 (stereo not drawn) [Cpd. No. 043, N-(cyanomethyl)-N-((4-(4-(trifluoromethyl)phenyl)-4,5,6,7-tetrahydropyrazolo[1,5-a]pyrimidin-6-yl)methyl)acetamide]
30 | > 20000 | C#CCNCC1CN(c2ccc(C(F)(F)F)cc2)c2ccnn2C1 (stereo not drawn) [Cpd. No. 044, N-((4-(4-(trifluoromethyl)phenyl)-4,5,6,7-tetrahydropyrazolo[1,5-a]pyrimidin-6-yl)methyl)prop-2-yn-1-amine]
